Results published in publication PMC10482825 (Scientific Reports, 2023).

Experiments:
S. epidermidis = test: Radial diffusion assay; assay type: cell-based; settings: 5 µl of 500 µM per 3 mm well, 37 °C, mean ± SD
Description: The antimicrobial activity spectra of the selected cryptides were screened against all the mentioned microbial pathogens, except V. parahaemolyticus, by radial diffusion assay as previously described, with slight modifications. We aimed to test different categories of pathogens on the WHO global priority due to their growing resistance to the available antibiotics such as P. aeruginosa, E. coli and K. pneumoniae in the critical category and Salmonella ssp. and S. aureus in the high category. Briefly, a total of 4 × 10^6 CFU of each pathogen was inoculated in 10 mL of an underlay agarose gel [0.03% w/v tryptone soy broth (TSB) medium, 1% w/v agarose and 0.02% v/v Tween 20 in 10 mM Tris–HCl] that was then poured into a 100-mm petri dish. After agarose solidification, 3 mm-diameter wells were punched by a sterile cork borer and 5 µl of 500 µM stock solution from each cryptide was added to each well. Melittin and acidified water were used as positive and negative controls, respectively. […] The plates were then incubated for 18 h, and the antimicrobial activities were measured in the absolute unit (AU), as previously described. […]
(§1) plate. The plates were then incubated for 12 h at 37 °C and antimicrobial activities were measured in the term of absolute unit (A.U). […]

S. aureus = test: Radial diffusion assay; assay type: cell-based, Staphylococcus aureus (ATCC, 25923); settings: 5 µl of 500 µM per 3 mm well, 37 °C, mean ± SD
Description: (§2) The microbial strains used in this study were Bacillus subtilis (ATCC, 11774), Candida albicans (TIMM, 1768), Enterococcus faecalis (ATCC, 33186), Escherichia coli (ATCC, 11775), Klebsiella pneumoniae (ATCC, 13883), Methicillin-resistant Staphylococcus aureus (ATCC, BAA-41), Pseudomonas aeruginosa (ATCC, 10145), Salmonella enterica (ATCC, 14028), Serratia marcescens (ATCC, 13880), Staphylococcus aureus (ATCC, 25923) and Vibrio parahaemolyticus (ATCC, 17802). All microbial strains were cultivated overnight at 37 °C and 200 rpm, then subcultured and incubated for 3 h under the same incubation conditions to obtain the mid-logarithmic growth phase. The cultivated cells were washed twice with 10 mM Tris–HCl containing 5 mM D-glucose at pH 7.4 and suspended in the same buffer to be used in different assays, as previously described.
(§3) The antimicrobial activity spectra of the selected cryptides were screened against all the mentioned microbial pathogens, except V. parahaemolyticus, by radial diffusion assay as previously described, with slight modifications. […] The plates were then incubated for 18 h, and the antimicrobial activities were measured in the absolute unit (AU), as previously described. […]
as §1

MRSA = test: Radial diffusion assay; assay type: cell-based, Methicillin-resistant Staphylococcus aureus (ATCC, BAA-41); settings: 5 µl of 500 µM per 3 mm well, 37 °C, mean ± SD
Description: as §2, §3, §1

C. albicans = test: Radial diffusion assay; assay type: cell-based, Candida albicans (TIMM, 1768); settings: 5 µl of 500 µM per 3 mm well, 37 °C, mean ± SD
Description: as §2, §3, §1

[1] = assay type: cell-based; settings: 24 h, serum-free medium, MTT, 37 °C, 5% CO2; mean ± SD; read-out: IC50 (µM) A459
Description: (§4) The used mammalian cell lines in our study were colorectal adenocarcinoma (Caco2, ATCC-HTB-37), colorectal carcinoma (HCT 116, ATCC-CCL-247), lung carcinoma (A549, ATCC- CCL-185), cervical cancer cells (HeLa, ATCC-CCL-2), neuroblastoma (SH-SY5Y, ATCC- CRL-2266), rhabdomyosarcoma (RD, ATCC- CCL-136) and human embryonic kidney cells (HEK 293, ATCC- CRL-1573). All the cells were maintained into Dulbecco’s Modified Eagle’s Medium (DMEM) supplemented with 10% heat-inactivated fetal bovine serum, 2 mM L-Glutamine, 100 U/ml penicillin–streptomycin (Pen/Strep) at 37 °C in 5% CO2 humidified incubator.
(§5) First, the cytotoxic effect of 24 h serum deprivation on all the selected cell lines was evaluated by MTT assay, following standard protocols. Briefly, cells were seeded and maintained at 37 °C and 5% CO2 in 24-well plates until they reached 75–80% confluency (zero time). Following washing twice with 1X PBS, cells were incubated in a serum-free medium for 24 h, under the same incubation conditions. The cell viability percentages were calculated and compared to zero time as 100% viability to nullify any possible effects of serum deprivation. Thence, the cell viability percentage of each cell line in response to 24 h treatment with different concentrations of each cryptide in serum-free medium was calculated. […] All the measured cell viability percentages were normalised against the corresponding negative controls.

SH-SY5Y = assay type: cell-based; settings: 24 h, serum-free medium, MTT, 37 °C, 5% CO2; mean ± SD
Description: as §4, §5

RD = assay type: cell-based; settings: 24 h, serum-free medium, MTT, 37 °C, 5% CO2; mean ± SD
Description: as §4, §5

K. pneumoniae = test: Radial diffusion assay; assay type: cell-based, Klebsiella pneumoniae (ATCC, 13883); settings: 5 µl of 500 µM per 3 mm well, 37 °C, mean ± SD
Description: as §2, §3, §1

S. enterica = test: Radial diffusion assay; assay type: cell-based, Salmonella enterica (ATCC, 14028); settings: 5 µl of 500 µM per 3 mm well, 37 °C, mean ± SD
Description: as §2, §3, §1

P. aeruginosa = test: Radial diffusion assay; assay type: cell-based, Pseudomonas aeruginosa (ATCC, 10145); settings: 5 µl of 500 µM per 3 mm well, 37 °C, mean ± SD
Description: as §2, §3, §1

B. subtilis = test: Radial diffusion assay; assay type: cell-based, Bacillus subtilis (ATCC, 11774); settings: 5 µl of 500 µM per 3 mm well, 37 °C, mean ± SD
Description: as §2, §3, §1

E. faecalis = test: Radial diffusion assay; assay type: cell-based, Enterococcus faecalis (ATCC, 33186); settings: 5 µl of 500 µM per 3 mm well, 37 °C, mean ± SD
Description: as §2, §3, §1

S. marcescens = test: Radial diffusion assay; assay type: cell-based, Serratia marcescens (ATCC, 13880); settings: 5 µl of 500 µM per 3 mm well, 37 °C, mean ± SD
Description: as §2, §3, §1

HeLa = assay type: cell-based, human; settings: 24 h, serum-free medium, MTT, 37 °C, 5% CO2; mean ± SD
Description: as §4, §5

Caco-2 = assay type: cell-based, human; settings: 24 h, serum-free medium, MTT, 37 °C, 5% CO2; mean ± SD
Description: as §4, §5

HCT 116 = assay type: cell-based, human; settings: 24 h, serum-free medium, MTT, 37 °C, 5% CO2; mean ± SD
Description: as §4, §5

HEK-293 = test: MTT cytotoxicity on normal cells; assay type: cell-based, human; settings: 25 µM (highest tested concentration), 24 h, serum-free medium
Description: as §4, §5

E. coli K-1 = test: Radial diffusion assay; assay type: cell-based, Escherichia coli (ATCC, 11775); settings: 5 µl of 500 µM per 3 mm well, 37 °C, mean ± SD
Description: as §2, §3, §1

bacterial pathogens = settings: salt tolerance; cited from earlier work
Description: For example, Pleurocidin is an AMP isolated from a marine flatfish Pseudopleuronectes americanus (Winter flounder) and has been reported to be active against bacterial pathogens at high NaCl concentrations, up to 625 mM[15]. This potential salt-insensi ...

| Compound | Antimicrobial activity (inhibition zone) S. epidermidis (S. epidermidis) | Antimicrobial activity (inhibition zone) S. aureus (S. aureus) | Antimicrobial activity (inhibition zone) MRSA (MRSA) | Antifungal activity (inhibition zone) C. albicans (C. albicans) | IC50 [1] | IC50 (SH-SY5Y) | IC50 (RD) | Antimicrobial activity (inhibition zone) K. pneumoniae (K. pneumoniae) | Antimicrobial activity (inhibition zone) S. enterica (S. enterica) | Antimicrobial activity (inhibition zone) P. aeruginosa (P. aeruginosa) | Antimicrobial activity (inhibition zone) B. subtilis (B. subtilis) | Antimicrobial activity (inhibition zone) E. faecalis (E. faecalis) | Antimicrobial activity (inhibition zone) S. marcescens (S. marcescens) | IC50 (HeLa) | IC50 (Caco-2) | IC50 (HCT 116) | Cell death of HEK-293 (HEK-293) | Antimicrobial activity (inhibition zone) E. coli K-1 (E. coli K-1) | NaCl concentration up to which active against bacterial pathogens (bacterial pathogens) |
| --- | --- | --- | --- | --- | --- | --- | --- | --- | --- | --- | --- | --- | --- | --- | --- | --- | --- | --- | --- |
| CC[C@H](C)[C@H](NC(=O)CN)C(=O)NCC(=O)N[C@@H](C)C(=O)N[C@H](C(=O)N[C@@H](CC(C)C)C(=O)N[C@@H](CCCCN)C(=O)N[C@H](C(=O)N[C@@H](CC(C)C)C(=O)N[C@H](C(=O)N[C@H](C(=O)NCC(=O)N[C@@H](CC(C)C)C(=O)N1CCC[C@H]1C(=O)N[C@@H](C)C(=O)N[C@@H](CC(C)C)C(=O)N[C@H](C(=O)N[C@@H](CO)C(=O)N[C@@H](Cc1c[nH]c2ccccc12)C(=O)N[C@H](C(=O)N[C@@H](CCCCN)C(=O)N[C@@H](CCCNC(=N)N)C(=O)N[C@@H](CCCCN)C(=O)N[C@@H](CCCNC(=N)N)C(=O)N[C@@H](CCC(N)=O)C(=O)N[C@@H](CCC(N)=O)C(N)=O)[C@@H](C)CC)[C@@H](C)CC)[C@@H](C)O)[C@@H](C)O)C(C)C)C(C)C [Melittin, reference compound] | 10.4 ± 1.2 A.U. | 41.5 ± 2.5 A.U. | 11.8 ± 1.3 A.U. | 14.2 ± 1.4 A.U. | 2.3 ± 0.6 µM | 1.7 ± 1 µM | 2.4 ± 0.5 µM | 11.8 ± 1.3 A.U. | 7.8 ± 2 A.U. | 6 ± 0.9 A.U. | 21.8± 3.1 A.U. | 11.8 ± 1.3 A.U. | 7.7 ± 1 A.U. | 0.9 ± 0.1 µM | 1.2 ± 0.9 µM | 2.1 ± 0.2 µM | 78.7% | 6.5 ± 0.9 A.U. |  |
| Pleurocidin (GWGSFFKKAAHVGKHVGKAALTHYL; UniProt P81941 23-47, looked up) [AMP isolated from a marine flatfish Pseudopleuronectes americanus (Winter flounder)] |  |  |  |  |  |  |  |  |  |  |  |  |  |  |  |  |  |  | up to 625 mM |
